# Literature values in patent US9863006B2, “Selective lysis of cells by ionic surfactants” (Biocartis NV, priority 2011, dated 2018).
# Settings: room temperature
smiles,measurement,value
CCCCCCCCCCCCOS(=O)(=O)[O-].[Na+] [sodium dodecyl sulfate],time to cross the membrane,hours or days
